Patent US5399543A, “3-[4-(phenylmethoxy)phenyl]-1-substituted-6-haloalkyl-uracil herbicides” (FMC Corporation, priority 1993, dated 1995)

Tests used:
Green foxtail [1] = test: Postemergence herbicidal activity, green foxtail; type: in vivo; settings: Setaria viridis, post-emergence, 0.3 kg/ha, after 17-21 days, read-out: Postemergence herbicidal activity (% control), Green foxtail
Description: (§1) The 3-[4-(phenylmethoxy)phenyl]-1-substituted-6-haloalkyluracil herbicides of this invention were tested for pre- and postemergence herbicidal activity using a variety of crops and weeds. The test plants included soybean (Glycine max var. Williams), field corn (Zea mays var. Agway 425X), wheat (Triticum aestivum var. Wheaton), morningglory (Ipomea lacunosa or Ipomea hederacea), velvetleaf (Abutilon theophrasti), green foxtail (Setaria viridis), Johnsongrass (Sorghum halepense), blackgrass (Aloepecurus myosuroides), common chickweed (Stellaria media), and common cocklebur (Xanthium pensylvanicum).
(§2) For preemergence testing, two disposable fiber flats (8 cm×15 cm×25 cm) for each rate of application of each candidate herbicide were filled to an approximate depth of 6.5 cm with steam-sterilized sandy loam soil. The soil was leveled and impressed with a template to provide five evenly spaced furrows 13 cm long and 0.5 cm deep in each flat. Seeds of soybean, wheat, corn, green foxtail, and johnsongrass were planted in the furrows of the first flat, and seeds of velvetleaf, morningglory, common chickweed, cocklebur, and blackgrass were planted in the furrows of the second flat. The five-row template was employed to firmly press the seeds into place. A topping soil of equal portions of sand and sandy loam soil was placed uniformly on top of each flat to a depth of approximately 0.5 cm. Flats for postemergence testing were prepared in the same manner except that they were planted 8-12 days prior to the preemergence flats and were placed in a greenhouse and watered, thus allowing the seeds to germinate and the foliage to develop.
(§3) In both pre- and postemergence tests, a stock solution of the candidate herbicide was prepared by dissolving 0.27 g of the compound in 20 mL of water/acetone (50/50) containing 0.5% v/v sorbitan monolaurate. For an application rate of 3000 g/ha of herbicide a 10 mL portion of the stock solution was diluted with water/acetone (50/50) to 45 mL.
(§4) The preemergence flats were initially subjected to a light water spray. The four flats were placed two by two along a conveyor belt (i.e., the two preemergence followed by the two postemergence flats). The conveyor belt fed under a spray nozzle mounted about ten inches above the postemergent foliage. The preemergent flats were elevated on the belt so that the soil surface was at the same level below the spray nozzle as the foliage canopy of the postemergent plants. The spray of herbicidal solution was commenced and once stabilized, the flats were passed under the spray at a speed to receive a coverage equivalent of 1000 L/ha. At this coverage the application rates are those shown in the above table for the individual herbicidal solutions. The preemergence flats were watered immediately thereafter, placed in the greenhouse and watered regularly at the soil surface. The postemergence flats were immediately placed in the greenhouse and not watered until 24 hours after treatment with the test solution. Thereafter they were regularly watered at ground level. After 17-21 days the plants were examined and the phytotoxicity data were recorded.
(§5) Herbicidal activity data at selected application rates are given for various compounds of this invention in Table 2 and Table 3. The test compounds are identified by numbers which correspond to those in Table 1.
(§6) Phytotoxicity data were taken as percent control. Percent control was determined by a method similar to the 0 to 100 rating system disclosed in "Research Methods in Weed Science," 2nd ed., B. Truelove, Ed.; Southern Weed Science Society; Auburn University, Auburn, Ala., 1977.

Cocklebur [2] = test: Postemergence herbicidal activity, cocklebur; type: in vivo, Xanthium pensylvanicum; settings: Xanthium strumarium, post-emergence, 0.3 kg/ha, after 17-21 days, read-out: Postemergence herbicidal activity (% control), Cocklebur
Description: as §1, §2, §3, §4, §5, §6

Green foxtail [3] = test: Preemergence herbicidal activity, green foxtail; type: in vivo; settings: Setaria viridis, pre-emergence, 0.3 kg/ha, after 17-21 days, read-out: Preemergence herbicidal activity (% control), Green foxtail
Description: as §1, §2, §3, §4, §5, §6

Morningglory [4] = test: Preemergence herbicidal activity, morningglory; type: in vivo, Ipomea lacunosa or Ipomea hederacea; settings: Ipomoea, pre-emergence, 0.3 kg/ha, after 17-21 days, read-out: Preemergence herbicidal activity (% control), Morningglory
Description: as §1, §2, §3, §4, §5, §6

Wheat [5] = test: Postemergence herbicidal activity, wheat; type: in vivo, Triticum aestivum var. Wheaton; settings: Triticum aestivum, post-emergence, 0.3 kg/ha, after 17-21 days, read-out: Postemergence herbicidal activity (% control), Wheat
Description: as §1, §2, §3, §4, §5, §6

Johnsongrass [6] = test: Postemergence herbicidal activity, johnsongrass; type: in vivo; settings: Sorghum halepense, post-emergence, 0.3 kg/ha, after 17-21 days, read-out: Postemergence herbicidal activity (% control), Johnsongrass
Description: as §1, §2, §3, §4, §5, §6

Soybean [7] = test: Preemergence herbicidal activity, soybean; type: in vivo, Glycine max var. Williams; settings: Glycine max, pre-emergence, 0.3 kg/ha, after 17-21 days, read-out: Preemergence herbicidal activity (% control), Soybean
Description: as §1, §2, §3, §4, §5, §6

Soybean [8] = test: Postemergence herbicidal activity, soybean; type: in vivo, Glycine max var. Williams; settings: Glycine max, post-emergence, 0.3 kg/ha, after 17-21 days, read-out: Postemergence herbicidal activity (% control), Soybean
Description: as §1, §2, §3, §4, §5, §6

Johnsongrass [9] = test: Preemergence herbicidal activity, johnsongrass; type: in vivo; settings: Sorghum halepense, pre-emergence, 0.3 kg/ha, after 17-21 days, read-out: Preemergence herbicidal activity (% control), Johnsongrass
Description: as §1, §2, §3, §4, §5, §6

Corn [10] = test: Postemergence herbicidal activity, corn; type: in vivo, Zea mays var. Agway 425X; settings: Zea mays, post-emergence, 0.3 kg/ha, after 17-21 days, read-out: Postemergence herbicidal activity (% control), Corn
Description: as §1, §2, §3, §4, §5, §6

Velvetleaf [11] = test: Preemergence herbicidal activity, velvetleaf; type: in vivo; settings: Abutilon theophrasti, pre-emergence, 0.3 kg/ha, after 17-21 days, read-out: Preemergence herbicidal activity (% control), Velvetleaf
Description: as §1, §2, §3, §4, §5, §6

Corn [12] = test: Preemergence herbicidal activity, corn; type: in vivo, Zea mays var. Agway 425X; settings: Zea mays, pre-emergence, 0.3 kg/ha, after 17-21 days, read-out: Preemergence herbicidal activity (% control), Corn
Description: as §1, §2, §3, §4, §5, §6

Chickweed [13] = test: Preemergence herbicidal activity, chickweed; type: in vivo; settings: Stellaria media, pre-emergence, 0.3 kg/ha, after 17-21 days, read-out: Preemergence herbicidal activity (% control), Chickweed
Description: as §1, §2, §3, §4, §5, §6

Blackgrass [14] = test: Postemergence herbicidal activity, blackgrass; type: in vivo, Aloepecurus myosuroides; settings: Alopecurus myosuroides, post-emergence, 0.3 kg/ha, after 17-21 days, read-out: Postemergence herbicidal activity (% control), Blackgrass
Description: as §1, §2, §3, §4, §5, §6

Chickweed [15] = test: Postemergence herbicidal activity, chickweed; type: in vivo; settings: Stellaria media, post-emergence, 0.3 kg/ha, after 17-21 days, read-out: Postemergence herbicidal activity (% control), Chickweed
Description: as §1, §2, §3, §4, §5, §6

Velvetleaf [16] = test: Postemergence herbicidal activity, velvetleaf; type: in vivo; settings: Abutilon theophrasti, post-emergence, 0.3 kg/ha, after 17-21 days, read-out: Postemergence herbicidal activity (% control), Velvetleaf
Description: as §1, §2, §3, §4, §5, §6

Cocklebur [17] = test: Preemergence herbicidal activity, cocklebur; type: in vivo, Xanthium pensylvanicum; settings: Xanthium strumarium, pre-emergence, 0.3 kg/ha, after 17-21 days, read-out: Preemergence herbicidal activity (% control), Cocklebur
Description: as §1, §2, §3, §4, §5, §6

Wheat [18] = test: Preemergence herbicidal activity, wheat; type: in vivo, Triticum aestivum var. Wheaton; settings: Triticum aestivum, pre-emergence, 0.3 kg/ha, after 17-21 days, read-out: Preemergence herbicidal activity (% control), Wheat
Description: as §1, §2, §3, §4, §5, §6

Blackgrass [19] = test: Preemergence herbicidal activity, blackgrass; type: in vivo, Aloepecurus myosuroides; settings: Alopecurus myosuroides, pre-emergence, 0.3 kg/ha, after 17-21 days, read-out: Preemergence herbicidal activity (% control), Blackgrass
Description: as §1, §2, §3, §4, §5, §6

Morningglory [20] = test: Postemergence herbicidal activity, morningglory; type: in vivo, Ipomea lacunosa or Ipomea hederacea; settings: Ipomoea, post-emergence, 0.3 kg/ha, after 17-21 days, read-out: Postemergence herbicidal activity (% control), Morningglory
Description: as §1, §2, §3, §4, §5, §6

SMILES | activity at 300 g/ha (Green foxtail [1]) | activity at 300 g/ha (Cocklebur [2]) | activity at 300 g/ha (Green foxtail [3]) | activity at 300 g/ha (Morningglory [4]) | activity at 300 g/ha (Wheat [5]) | activity at 300 g/ha (Johnsongrass [6]) | activity at 300 g/ha (Soybean [7]) | activity at 300 g/ha (Soybean [8]) | activity at 300 g/ha (Johnsongrass [9]) | activity at 300 g/ha (Corn [10]) | activity at 300 g/ha (Velvetleaf [11]) | activity at 300 g/ha (Corn [12]) | activity at 300 g/ha (Chickweed [13]) | activity at 300 g/ha (Blackgrass [14]) | activity at 300 g/ha (Chickweed [15]) | activity at 300 g/ha (Velvetleaf [16]) | activity at 300 g/ha (Cocklebur [17]) | activity at 300 g/ha (Wheat [18]) | activity at 300 g/ha (Blackgrass [19]) | activity at 300 g/ha (Morningglory [20])
Cn1c(C(F)(F)F)cc(=O)n(-c2ccc(OCc3ccccc3)cc2)c1=O [Compound 1] | 90% | 80% | 100% | 100% | 0% | 60% | 75% | 80% | 75% | 30% | 100% | 60% | 90% | 10% | 95% | 100% | 75% | 10% | 10% | 95%
Cn1c(C(F)(F)F)cc(=O)n(-c2ccc(OCc3ccccc3Cl)cc2)c1=O [Compound 2] | 85% | 30% | 100% | 60% | 0% | 10% | 20% | 60% | 70% | 45% | 100% | 15% | 0% | 0% | 0% | 80% | 10% | 5% | 0% | 60%
Cn1c(C(F)(F)F)cc(=O)n(-c2ccc(OCc3cccc(Cl)c3)cc2)c1=O [Compound 3] | 95% | 100% | 95% | 10% | 10% | 90% | 10% | 45% | 20% | 60% | 80% | 10% | 0% | 0% | 70% | 100% | 0% | 0% | 0% | 90%
Cn1c(C(F)(F)F)cc(=O)n(-c2ccc(OCc3ccc(Cl)cc3)cc2)c1=O [Compound 4, 3-[4-(4-Chlorophenylmethoxy)phenyl]-1-methyl-6-trifluoromethyluracil] | 80% | 100% | 100% | 90% | 0% | 0% | 60% | 95% | 95% | 50% | 100% | 30% | 100% | 0% | 100% | 95% | 30% | 10% | 50% | 100%
Cn1c(C(F)(F)F)cc(=O)n(-c2ccc(OCc3ccc(F)cc3)cc2)c1=O [Compound 5] | 90% | 100% | 100% | 100% | 0% | 75% | 60% | 90% | 90% | 75% | 100% | 50% | 100% | 30% | 100% | 100% | 40% | 20% | 20% | 100%
Cn1c(C(F)(F)F)cc(=O)n(-c2ccc(OCc3ccc(Cl)cc3Cl)cc2)c1=O [Compound 6] | 40% | 60% | 100% | 45% | 0% | 20% | 20% | 40% | 60% | 20% | 100% | 10% | 10% | 0% | 0% | 80% | 10% | 0% | 0% | 50%
Cn1c(C(F)(F)F)cc(=O)n(-c2ccc(OCc3cccc(Cl)c3Cl)cc2)c1=O [Compound 42] | 50% | 35% | 60% | 70% | 0% | 50% | 0% | 25% | 30% | 30% | 80% | 0% | 0% | 0% | 0% | 90% | 0% | 0% | 0% | 
